pIC50: −log10 of the molar value. Where no end group is shown, it is not given here. [ ]: non-standard residue; d: D form.
Tests used:
[1] = test system: Braf/Pten sporadic melanomas; assay: TUNEL staining of melanomas in transgenic mice; format: in vivo, mouse; settings: intratumoural injection daily over two days, single agents vs saline
Procedure: Fixed frozen sections of melanomas were stained with the Click-IT Plus TUNEL assay (ThermoFisher C10618) according to the manufacturer's protocol. Stained sections were imaged with a Zeiss A2 upright microscope at either 20x or 10x. At least one of each treatment group were stained and imaged at the same time. All sections from each staining group were set to the same exposure time for TUNEL and DAPI. Any normalization of background levels was performed in Adobe Photoshop and set to the same scale for the entire image and for all other images.

[2] = test system: Braf/Pten sporadic melanomas; assay: SA-β-gal staining of melanomas in transgenic mice; format: in vivo, mouse
Procedure: Senescent and dividing cells or tissue sections were fixed with 4% formaldehyde. The cells were washed with PBS twice before staining with X-gal solution [1 mg/mL 5-bromo-4-chloro-3inolyl-β-D-galactoside (Boehringer Manneheim #745-740) in N,N-dimethylformamide, 5 mM potassium ferricyanide crystalline (#P-8131), 5 mM potassium […] (#P-3289), 2 mM magnesium chloride, and 1x PBS, pH 6.0. Cells or tissue sections were incubated at 37°C for 24 hours. After staining, cells were washed with PBS before being counted and imaged on the Leica Dmi8 microscope.
Mice were aged between 3-8 months and 20-30 g in weight and were housed in specific pathogen free cages. Animals were randomly distributed among treatment groups by assigning mice within the same cage to different treatment regimens. To minimise confounders, mouse treatment order was randomised within each cage. Male and female mice were distributed between all treatment groups since the chemicals used were directly injected and are not metabolized. Researchers were not blinded to the group allocation, but all attempts were made to analyse the data without knowing treatment conditions. […] Mice were then monitored daily and allowed to age until a humane endpoint was reached according to our IACUC protocol, which in this case was tumours of 2 cm in size. […]

[3] = test system: dividing A375 human melanoma cells; assay: Survival study, orthotopic A375 xenograft; format: in vivo, mouse; settings: local injection once daily for two days
Excerpt: Mice were aged between 3-8 months and 20-30 g in weight and were housed in specific pathogen free cages. Animals were randomly distributed among treatment groups by assigning mice within the same cage to different treatment regimens. To minimise confounders, mouse treatment order was randomised within each cage. Male and female mice were distributed between all treatment groups since the chemicals used were directly injected and are not metabolized. Researchers were not blinded to the group allocation, but all attempts were made to analyse the data without knowing treatment conditions. NOD.Cg-Prkdcscid Il2rgtm1Wjl/SzJ (NSG) were purchased from The Jackson Laboratory (IMSR Cat# JAX:005557, RRID:IMSR_JAX:005557). NOD.Cg-KitW-41J Tyr + Prkdcscid Il2rgtm1Wjl/ThomJ (NBSGW) were purchased from The Jackson Laboratory (IMSR Cat# JAX:026622, RRID:IMSR_JAX:026622). Immunocompromised mice used for these experiments were all in the NSG background; however, some mice were F1 generation of NSG x NBSGW, thus the brown coat colour as NBSGW mice have tyrosinase. Xenografts containing senescent cells were established by injecting A375-Luc/iRFP human melanoma cells which contained a luciferase expressing gene into immunocompromised NSG ears. Senescence was induced in the cells via doxorubicin treatment (40 nM) then resuspended in DMEM prior to injection. Each ear was then injected with 50 µL containing approximately 1,000,000 cells. The ears were treated once daily for two days with 50 µL of either 5 mg/mL peptide, or saline. To control for confounders, each mouse contained one ear treated with saline (control). For imaging, mice were injected with 3 mg luciferin intravenously and imaged before and after treatment. Transgenic mice (BrafCA, PtenloxP, Tyr::CreERT2) were purchased from The Jackson Laboratory (IMSR Cat# JAX:013590, RRID:IMSR_JAX:013590). These mice were maintained on a C57Bl6 background and all experimental mice contained Tyr::CreER with either Braf^CA/+, Pten^fx/+; Braf^CA/CA, Pten^fx/+, or Braf^CA/+, Pten^fx/fx. […] Hypopigmented melanomas sporadically formed over the next 3-5 months, typically on the back of the mouse. These melanomas were then directly injected with 100 µL of either 20 mg/mL ES2+10%DMSO, saline+10%DMSO, saline+10%Dabrafenib, or 20 mg/mL ES2+10%Dabrafenib. The researchers were not blinded to the experiment, but each mouse contained an internal control and all imaging was done with the same exposure times based upon control tissue. For survival analyses, either 750,000 or 25,000 A375-Luc/iRFP cells were injected intradermally into NSG mice. […] Mice were then monitored daily and allowed to age until a humane endpoint was reached according to our IACUC protocol, which in this case was tumours of 2 cm in size. […]

[4] = test system: dividing A375 cells; assay: Peptide efficacy in culture (MTS), dividing cells; format: cell-based, human; settings: for pIC50: peptide replenished daily for two days, MTS, best fit polynomial, read-out: IC50^div, concentration to kill 50% of dividing cells
Procedure: (§1) Cell lines were treated with chemotherapy, doxorubicin (Sigma, Cat. No. 2252) to induce senescence (200 nM for HCT116, 100 nM for B16-F10 and MCF7, 50 nM for SW480 and DLD-1, 40 nM for A375-Luc/iRFP and MCF10a). MCF7 cells were treated with CDK4/6 inhibitor, palbociclib (Selleck Chemicals: S1116) to induce senescence (5 µM). A375 cells were treated with Braf inhibitor, Dabrafenib (Selleck Chemicals: S2807), to induce senescence (10 µM). Peptide efficacy experiments were performed by seeding 10,000 – 20,000 cells in a 96-well plate. The cells were given doxorubicin twice to make the cells senescent. After removal of doxorubicin, the plate was treated with varying concentrations of peptide. The peptide was replenished daily for two days. Cellular proliferation was quantified using the Promega CellTiter 96™ AQueous One Solution Cell Proliferation Assay (MTS) after 2 hours according to the manufacturer's protocol (Promega, G3581). To control for the charge of ES2, ProteoJuice (Millipore Sigma, 71281) was used to deliver ES2 using the manufacturers protocol, except 50 µL of 2 mM ES2 was mixed with 25 µL of ProteoJuice. Varying concentrations of the mixture were administered to A375 cells along with a control of only ProteoJuice.

[5] = test system: senescent A375 human melanoma cells; assay: Orthotopic xenograft of senescent luciferase A375 cells in mouse ears; format: in vivo; settings: NSG mouse ears, local injection 50 µL of 5 mg/mL once daily for two days, imaged 24 hours after second treatment; ANOVA p<0.01
Excerpt: Mice were aged between 3-8 months and 20-30 g in weight and were housed in specific pathogen free cages. Animals were randomly distributed among treatment groups by assigning mice within the same cage to different treatment regimens. To minimise confounders, mouse treatment order was randomised within each cage. Male and female mice were distributed between all treatment groups since the chemicals used were directly injected and are not metabolized. Researchers were not blinded to the group allocation, but all attempts were made to analyse the data without knowing treatment conditions. NOD.Cg-Prkdcscid Il2rgtm1Wjl/SzJ (NSG) were purchased from The Jackson Laboratory (IMSR Cat# JAX:005557, RRID:IMSR_JAX:005557). NOD.Cg-KitW-41J Tyr + Prkdcscid Il2rgtm1Wjl/ThomJ (NBSGW) were purchased from The Jackson Laboratory (IMSR Cat# JAX:026622, RRID:IMSR_JAX:026622). Immunocompromised mice used for these experiments were all in the NSG background; however, some mice were F1 generation of NSG x NBSGW, thus the brown coat colour as NBSGW mice have tyrosinase. Xenografts containing senescent cells were established by injecting A375-Luc/iRFP human melanoma cells which contained a luciferase expressing gene into immunocompromised NSG ears. Senescence was induced in the cells via doxorubicin treatment (40 nM) then resuspended in DMEM prior to injection. Each ear was then injected with 50 µL containing approximately 1,000,000 cells. The ears were treated once daily for two days with 50 µL of either 5 mg/mL peptide, or saline. To control for confounders, each mouse contained one ear treated with saline (control). For imaging, mice were injected with 3 mg luciferin intravenously and imaged before and after treatment. Transgenic mice (BrafCA, PtenloxP, Tyr::CreERT2) were purchased from The Jackson Laboratory (IMSR Cat# JAX:013590, RRID:IMSR_JAX:013590). These mice were maintained on a C57Bl6 background and all experimental mice contained Tyr::CreER with either Braf^CA/+, Pten^fx/+; Braf^CA/CA, Pten^fx/+, or Braf^CA/+, Pten^fx/fx. […] Hypopigmented melanomas sporadically formed over the next 3-5 months, typically on the back of the mouse. These melanomas were then directly injected with 100 µL of either 20 mg/mL ES2+10%DMSO, saline+10%DMSO, saline+10%Dabrafenib, or 20 mg/mL ES2+10%Dabrafenib. The researchers were not blinded to the experiment, but each mouse contained an internal control and all imaging was done with the same exposure times based upon control tissue. For survival analyses, either 750,000 or 25,000 A375-Luc/iRFP cells were injected intradermally into NSG mice. Different combinations of drugs were locally injected to the region once daily for two days with 50 µL of either 5 mg/mL ES2, 10%Dabrafenib, or 5mg/mL ES2+10%Dabrafenib. Dabrafenib was made at 100 mg/mL in DMSO. Mice were then monitored daily and allowed to age until a humane endpoint was reached according to our IACUC protocol, which in this case was tumours of 2 cm in size. Aged C57Bl6 male mice were purchased from the Jackson Laboratory (IMSR Car# JAX:000664, RRID:IMSR_JAX:000664) at 72 weeks of age and were started on the experiment at 82 weeks. Mice were treated with 3 mg of ES2 via tail vein injection weekly for three weeks and weighed weekly. Blood was drawn prior to beginning experiments and at the endpoint. To generate plasma, blood was centrifuged at 1,500g for 10 minutes, then 2,500g for 10 minutes, then frozen for later analyses. […]

[6] = test system: senescent A375 cells; assay: Peptide efficacy in culture (MTS), senescent cells; format: cell-based, human; settings: for pIC50: doxorubicin (40 nM)-induced senescent A375 cells, peptide replenished daily for two days, MTS, best fit polynomial, read-out: IC50^sen, concentration to kill 50% of senescent cells; for senolytic activity (in words): senescent vs dividing A375 cells
Procedure: as §1

Row | Molecule | luciferase signal compared to E1 and saline [5] | pIC50 [4] | pIC50 [6] | senolytic activity (in words) [6] | further results
1 | CC(C)(C)c1nc(-c2cccc(NS(=O)(=O)c3c(F)cccc3F)c2F)c(-c2ccnc(N)n2)s1 [Dabrafenib] | – | – | – | – | effect on apoptosis (TUNEL), in words [1]: no effect on apoptosis; effect on apoptosis (TUNEL), in words ([1]; listed as Dab): no difference; increase of fraction of SA-β-gal+ cells within the melanoma over saline ([2]; Dabrafenib n=8, saline n=5, p<0.001): 11 fold; senescence of the melanoma compared to vehicle, in words ([2]; intratumoural injection daily over two days): strongly induced senescence; effect on survival time, in words ([3]; 25,000 A375 cells): no effect on survival time; effect on survival time, in words ([3]; 750,000 A375 cells): did not alter survival times
2 | [dL][dT][dL][dR][dK][dE][dP][dA][dS][dE][dI][dA][dQ][dS][dI][dL][dE][dA][dY][dS][dQ][dN]G[dW][dA][dN][dR][dR][dS]GG[dK][dR][dP][dP][dP][dR][dR][dR][dQ][dR][dR][dK][dK][dR]G [FOXO4-DRI, reference compound] | statistically significantly reduced luciferase signal | – | – | – | lytic activity in dividing cells (in words) [4]: minimal lytic activity in dividing cells
3 | PRKGGSRRRAWGRRRYRRRLRRRLRRAPRKRLTLA [ES2r2] | statistically significantly reduced luciferase signal | < 4.70 | ~5.05 | slightly lower senolytic activity | –
4 | H-GRKKRRQRRRPPPRKGGSRRRAWGNQRYARLIRQAIESAPEKRLTLA-OH [E1] | – | – | – | negligible senolytic activity | –
5 | PRKGGRRRRAWGRRRRRRRLRRRLRRAPRKRLTLA [ES2r1] | statistically significantly reduced luciferase signal | ~4.89 | ~5.22 | highest senolytic activity | –
6 | YGRKKRRQRRRYGRKKRRQRRRYGRKKRRQRRR [ES1] | statistically significantly reduced luciferase signal | ~4.72 | ~5.40 | highest senolytic activity | –

Source: PMC8546421, “Molecular modelling of the FOXO4-TP53 interaction to design senolytic peptides for the elimination of senescent cancer cells” (EBioMedicine, 2021)
